Calls of active or inactive are those of the source. How the calls were made is not given here.

G protein-activated inward rectifier potassium channel 2 (Homo sapiens) + G protein-activated inward rectifier potassium channel 1 (Homo sapiens), sequence (P48051 whole entry, looked up): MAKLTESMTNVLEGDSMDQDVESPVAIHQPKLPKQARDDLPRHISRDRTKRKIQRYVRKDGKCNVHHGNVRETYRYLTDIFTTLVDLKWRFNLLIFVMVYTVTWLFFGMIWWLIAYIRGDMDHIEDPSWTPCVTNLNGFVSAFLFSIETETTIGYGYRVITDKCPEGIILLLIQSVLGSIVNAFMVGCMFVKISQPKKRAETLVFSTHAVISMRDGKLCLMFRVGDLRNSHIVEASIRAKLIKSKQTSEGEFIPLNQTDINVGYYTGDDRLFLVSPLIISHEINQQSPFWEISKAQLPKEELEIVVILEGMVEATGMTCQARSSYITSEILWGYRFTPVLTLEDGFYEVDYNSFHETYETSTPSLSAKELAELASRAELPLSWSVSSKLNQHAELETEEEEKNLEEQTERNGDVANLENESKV
G protein-activated inward rectifier potassium channel 2 (Homo sapiens) + G protein-activated inward rectifier potassium channel 1 (Homo sapiens), sequence (P48549 whole entry, looked up): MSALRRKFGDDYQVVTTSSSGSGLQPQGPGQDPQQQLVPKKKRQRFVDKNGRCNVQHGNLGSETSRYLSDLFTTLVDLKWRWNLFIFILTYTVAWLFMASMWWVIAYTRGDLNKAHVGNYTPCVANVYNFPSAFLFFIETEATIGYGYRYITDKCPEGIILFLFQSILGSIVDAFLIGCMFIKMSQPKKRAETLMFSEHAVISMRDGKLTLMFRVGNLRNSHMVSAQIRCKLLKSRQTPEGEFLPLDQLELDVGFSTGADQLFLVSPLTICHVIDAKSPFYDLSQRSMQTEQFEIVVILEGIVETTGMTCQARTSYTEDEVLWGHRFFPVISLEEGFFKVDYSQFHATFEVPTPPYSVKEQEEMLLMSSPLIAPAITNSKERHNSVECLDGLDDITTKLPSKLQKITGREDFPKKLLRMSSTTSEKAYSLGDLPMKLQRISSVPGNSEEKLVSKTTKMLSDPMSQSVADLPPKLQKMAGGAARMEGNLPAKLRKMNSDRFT

The first test concerns the target G protein-activated inward rectifier potassium channel 2 (Homo sapiens) + G protein-activated inward rectifier potassium channel 1 (Homo sapiens) (UniProt P48051+P48549). The test is described as follows: GIRK1/2 channel activators, dose response, cell-based, thallium flux, HEK-293 (AID 623909). The note with it: HEK-293 hGIRK1/2, thallium flux FluoZin-2 fluorescence.
A word on the EC50: it is the concentration needed to bring the measured effect to its halfway point. In the case of `CC(Sc1nnnn1C)C(=O)Nc1ccc(Oc2ccccc2)cc1` (configuration not stated), the EC50 was 30 µM. For `CC(C)=CCC(C)(C)CNC(=O)NC1CCCCC1`, the EC50 was 30 µM.

On to `O=C(Nc1ccc(Cl)cc1)NC1CCCCC1Cc1ccco1` (configuration not stated), for which the concentration for a half-maximal effect (EC50) is 4.14 µM. Regarding `Cc1ccc(Cl)cc1NC(=S)NCc1cccn1C`, the EC50 is 16.2 µM. Same read-out and setting: under `CC(/C=N/NC(=O)c1c(Br)cnn1C)=C\c1ccccc1` stands 3.54 µM; under `Cc1cc(C)n(-c2ccc(C(=O)OCC(=O)Nc3ccc(Cl)c(S(=O)(=O)N(C)C)c3)cc2)n1`, 8.94 µM. Still for that read-out and setting: under `CCc1ccc(CNCCNCC(C)O)cc1` (configuration not stated) stands 2.36 µM; under `CCOc1ccc(NC(=O)NC23CC4CC(CC(C4)C2)C3)cc1`, 1.48 µM; under `COc1cccc(NC(=O)Cn2cc(C#N)c3ccccc32)c1`, 1.65 µM. Same read-out and setting: with `CCOc1ccc(OCCSc2nc3ccccc3[nH]2)cc1` the figure was 1.67 µM; with `O=C(Cc1ccccc1)N/N=C/c1cccn1-c1ccc([N+](=O)[O-])cc1`, 1.42 µM; with `O=C(Nc1ccccc1)Nc1nccs1`, 30 µM. `NC(=O)SCC(=O)Nc1ccc(Cl)cc1`: the EC50 is 4.2 µM. Consider `CC(=O)c1sc(NC(=O)c2cc(-c3ccccc3)nn2-c2ccccc2)nc1C`, for which the EC50 is 0.884 µM. On to `COc1ccc(C)cc1NC(=O)NCCC1=CCCCC1`, for which the EC50 was 3.94 µM. The same measure, in the same setting: with `Cc1ccc(NC(=O)CN2c3cccc4cccc(c34)S2(=O)=O)cc1S(=O)(=O)N1CCOCC1` the figure was 2.23 µM; with `Cc1ccc(NC(=O)COC(=O)CCC(=O)c2ccc(Cl)cc2)cc1S(=O)(=O)N(C)C`, 30 µM; with `CCCSc1nnc(Nc2ccccc2C)s1`, 30 µM.

In the case of `CSc1ccccc1NC(=O)Nc1ccccc1`, the EC50 was 12.8 µM.

In the case of `Cc1ccc(CC(=O)N2CCN(c3cccc(C(F)(F)F)c3)CC2)cc1`, the EC50 is 5.18 µM.

For the compound `CCCN(CC1CC1)C(=S)Nc1ccc(Oc2ccccc2)cc1`, the EC50 is 3.54 µM.

With `O=C(Nc1cccc(Cl)c1)Nc1nccs1`, the EC50 is 1.95 µM. Same read-out and setting: with `O=C(Nc1ccc(F)c(F)c1)NC1CCCCC1` the figure was 8.55 µM. Still for that read-out and setting: under `COC(=O)[C@H](Cc1ccccc1)NC(=O)NCCC1=CCCCC1` stands 30 µM; under `Cc1ccc(NC(=O)Cc2ccccc2Cl)cc1S(=O)(=O)N(C)C`, 2.62 µM. As to `CCCCc1ccc(NC(=S)Nc2ccc(Cl)c(S(=O)(=O)N(C)C)c2)cc1`, the EC50 was 4 µM. On to `CCOC(=O)C1=C(CC)Nc2ccccc2N=C1NC(=O)Nc1ccc(Cl)c(Cl)c1`, for which the EC50 was 3.62 µM. The same measure, in the same setting: with `COc1ccc(C2CC(c3ccc(Cl)c(Cl)c3)Nc3nc(N)nn32)cc1` (configuration not stated) the figure was 2.41 µM; with `CC1CCCN(Cc2cccc(Oc3ccccc3)c2)C1` (configuration not stated), 30 µM.

Regarding `COc1ccc(C)cc1NC(=O)Nc1ccccc1`, the EC50 is 5.96 µM. The same measure, in the same setting: under `Cc1ccc(NC(=O)COC(=O)/C=C/c2ccco2)cc1S(=O)(=O)N(C)C` stands 30 µM. The same measure, in the same setting: with `CCOCc1c(C(=O)OCC(=O)Nc2ccc(C)c(S(=O)(=O)N(C)C)c2)oc2ccccc12` the figure was 30 µM; with `S=C(Nc1cccc(Cl)c1)Nc1ccccc1Oc1ccccc1`, 8.09 µM. As for `COc1ccccc1Nc1ccc(Nc2ccccc2OC)nn1`, the EC50 was 3.41 µM.

For the compound `CSc1cccc(NC(=O)CN(c2ccccc2)S(=O)(=O)N(C)C)c1`, the EC50 is 30 µM. On the same count and under the same terms, under `Cc1cc(NC(=O)Nc2ccccc2)n(-c2ccccc2)n1` stands 3.76 µM; under `Cc1nn(CC(=O)Nc2ccc(Cl)c(S(=O)(=O)N(C)C)c2)c(C)c1[N+](=O)[O-]`, 30 µM. The same measure, in the same setting: under `O=C(NNC(=O)c1cccs1)Nc1cccc(Cl)c1` stands 11.2 µM; under `CSc1cccc(NC(=O)COc2ccccc2)c1`, 30 µM.

`Cc1cccc(NC(=O)NC(C)CCc2ccccc2)c1` (configuration not stated): the EC50 was 30 µM. Still for that read-out and setting: with `CC1CC(C)CN(C(=S)Nc2ccc(SC(F)F)cc2)C1` (configuration not stated) the figure was 10.6 µM; with `COc1cccc(NC(=O)Nc2cccs2)c1`, 7.33 µM. Consider `COc1ccc(NC(=O)Nc2ccccc2C(=O)N2CCCC2)cc1`, for which the EC50 is 30 µM. Regarding `Cc1ccc(-c2nnn(CC(=O)NC3CC4CCC3C4)n2)cc1` (configuration not stated), the EC50 is 0.317 µM.

Regarding `CN(C)S(=O)(=O)c1cccc(NC(=O)Cc2ccc(Cl)cc2)c1`, the EC50 is 9.88 µM. Regarding `Fc1ccc(CSc2nc3ccccc3[nH]2)c2ccccc12`, the EC50 is 3.6 µM.

For `O=C(/C=C/c1ccccc1)NC(NC(=S)Nc1cccc(Cl)c1)C(Cl)(Cl)Cl` (configuration not stated), the EC50 was 5.91 µM. On the same count and under the same terms, under `COc1ccc(Nc2nnc(Cc3ccccc3)c(=O)[nH]2)c(OC)c1` stands 30 µM; under `CCOc1ccccc1Nc1nnc(Cc2ccccc2Cl)c(=O)[nH]1`, 0.67 µM; under `COc1c(Cl)cc(Cl)cc1CNCCNCC(C)O` (configuration not stated), 0.497 µM. Turning to `CCSc1nnc(NC(=O)NC(CC)(C(F)(F)F)C(F)(F)F)s1`, the EC50 was 30 µM. On the same count and under the same terms, under `COc1cccc(NC(=O)CC2COc3ccccc3O2)c1` (configuration not stated) stands 30 µM; under `CCCn1c(C)cc(/C=C(\C#N)C(=O)OCC(=O)Nc2cccc(OC)c2)c1C`, 30 µM; under `CCCCc1ccc(NC(=S)Nc2cccnc2)cc1`, 8.96 µM.

On to `CCOC(=O)Cc1csc(NC(=O)Nc2ccccc2)n1`, for which the EC50 was 7.34 µM.

As to `COc1ccc(NC(=O)Nc2cc(C)ccc2OC)cc1`, the EC50 is 2.05 µM. Consider `Cc1ccccc1OCC(=O)N/N=C/c1cccn1C`, for which the EC50 is 30 µM. On to `CCOC(=O)C(Cc1ccccc1)NC(=O)Cn1nnc(-c2ccccc2)n1` (configuration not stated), for which the EC50 was 30 µM. Regarding `CN(C)S(=O)(=O)N(CC(=O)Nc1ccc2ccccc2c1)c1ccccc1`, the EC50 was 7.2 µM. Regarding `C/C(CC(=O)NCC(C)C)=N\NC(=O)COc1cc(C)c(Br)cc1Br`, the EC50 is 16.8 µM. Same read-out and setting: under `O=C(Nc1ccc(Cl)cc1)Nc1nccs1` stands 3.65 µM; under `C=C(C)C1CC=C(C)/C(=N/NC(=O)COc2cccc(C)c2)C1` (configuration not stated), 8.94 µM; under `COc1ccc(C(=O)NC(=S)NC(C)C)cc1Br`, 2.25 µM. For the compound `COc1ccc(Br)cc1CNC(=O)Nc1cccs1`, the EC50 was 1.75 µM. The same measure, in the same setting: under `CCOC(=O)c1ccc(NC(=O)Nc2ccc(OC)c(OC)c2)cc1` stands 5.54 µM.

Still in this test, the particulars now being: HEK-293 hGIRK1/2, thallium flux FluoZin-2 fluorescence; at 90 µM (top of the series).
For `CCOc1ccc(NC(=O)Nc2cccs2)cc1`, the “activation, % of glutamate” value was “inactive”. For the compound `CSc1ccccc1NC(=O)Nc1ccc(Cl)cc1`, the “activation, % of glutamate” value was “inactive”.

Source of the values: PubChem BioAssay AID623909 (Vanderbilt High Throughput Screening Facility, 2012).
